ChEMBL document CHEMBL1649268, “Comparative in vitro activity profile of oritavancin against recent gram-positive clinical isolates” (2009)
≈ marks a conversion by molar mass, not a printed value.

What was measured:
Streptococcus [1] = test: Antimicrobial activity against erythromycin-nonsusceptible Streptococcus Group F clinical isolates assessed as percent susceptible isolates by broth microdilution method; assay type: functional
Streptococcus [2] = test: Antimicrobial activity against erythromycin-susceptible Streptococcus Group F clinical isolates assessed as percent susceptible isolates by broth microdilution method; assay type: functional
Streptococcus [3] = test: Antimicrobial activity against Streptococcus Group F clinical isolates assessed as percent susceptible isolates by broth microdilution method; assay type: functional
[4] = Antimicrobial activity against erythromycin-nonsusceptible Streptococcus Group G clinical isolates assessed as percent susceptible isolates by broth microdilution method; assay type: functional, Streptococcus sp. 'group G'
[5] = Antimicrobial activity against erythromycin-nonsusceptible Streptococcus Group C clinical isolates assessed as percent susceptible isolates by broth microdilution method; assay type: functional, Streptococcus sp. 'group C'
[6] = Antimicrobial activity against Streptococcus Group C clinical isolates assessed as percent susceptible isolates by broth microdilution method; assay type: functional, Streptococcus sp. 'group C'
[7] = tested on: Staphylococcus haemolyticus; test: Antimicrobial activity against oxacillin-resistant Staphylococcus haemolyticus clinical isolates assessed as percent susceptible isolates by broth microdilution method; assay type: functional
[8] = tested on: Staphylococcus epidermidis; test: Antimicrobial activity against oxacillin-resistant Staphylococcus epidermidis clinical isolates assessed as percent susceptible isolates by broth microdilution method; assay type: functional
[9] = tested on: Staphylococcus epidermidis; test: Antimicrobial activity against Staphylococcus epidermidis clinical isolates assessed as percent susceptible isolates by broth microdilution method; assay type: functional
Staphylococcus aureus [10] = test: Antimicrobial activity against oxacillin-resistant Staphylococcus aureus clinical isolates assessed as percent susceptible isolates by broth microdilution method; assay type: functional
Staphylococcus aureus [11] = test: Antimicrobial activity against oxacillin-susceptible Staphylococcus aureus clinical isolates assessed as percent susceptible isolates by broth microdilution method; assay type: functional
Staphylococcus aureus [12] = test: Antimicrobial activity against Staphylococcus aureus clinical isolates assessed as percent susceptible isolates by broth microdilution method; assay type: functional
Streptococcus [13] = test: Antimicrobial activity against Streptococcus Group F clinical isolates assessed as resistant isolates by broth microdilution method; assay type: functional
Streptococcus [14] = test: Antimicrobial activity against erythromycin-susceptible Streptococcus Group F clinical isolates assessed as resistant isolates by broth microdilution method; assay type: functional
Streptococcus [15] = test: Antimicrobial activity against erythromycin-nonsusceptible Streptococcus Group F clinical isolates assessed as resistant isolates by broth microdilution method; assay type: functional
[16] = Antimicrobial activity against erythromycin-nonsusceptible Streptococcus Group G clinical isolates assessed as resistant isolates by broth microdilution method; assay type: functional, Streptococcus sp. 'group G'
[17] = Antimicrobial activity against erythromycin-susceptible Streptococcus Group G clinical isolates assessed as resistant isolates by broth microdilution method; assay type: functional, Streptococcus sp. 'group G'
[18] = Antimicrobial activity against erythromycin-nonsusceptible Streptococcus Group C clinical isolates assessed as resistant isolates by broth microdilution method; assay type: functional, Streptococcus sp. 'group C'
[19] = Antimicrobial activity against Streptococcus Group C clinical isolates assessed as resistant isolates by broth microdilution method; assay type: functional, Streptococcus sp. 'group C'
Streptococcus pyogenes = test: Antimicrobial activity against Streptococcus pyogenes clinical isolates assessed as resistant isolates by broth microdilution method; assay type: functional
[20] = tested on: Staphylococcus haemolyticus; test: Antimicrobial activity against oxacillin-susceptible Staphylococcus haemolyticus clinical isolates assessed as resistant isolates by broth microdilution method; assay type: functional
[21] = tested on: Staphylococcus haemolyticus; test: Antimicrobial activity against Staphylococcus haemolyticus clinical isolates assessed as resistant isolates by broth microdilution method; assay type: functional
[22] = tested on: Staphylococcus epidermidis; test: Antimicrobial activity against oxacillin-susceptible Staphylococcus epidermidis clinical isolates assessed as resistant isolates by broth microdilution method; assay type: functional
Staphylococcus aureus [23] = test: Antimicrobial activity against oxacillin-resistant Staphylococcus aureus clinical isolates assessed as resistant isolates by broth microdilution method; assay type: functional
Staphylococcus aureus [24] = test: Antimicrobial activity against oxacillin-susceptible Staphylococcus aureus clinical isolates assessed as resistant isolates by broth microdilution method; assay type: functional
Staphylococcus aureus [25] = test: Antimicrobial activity against Staphylococcus aureus clinical isolates assessed as resistant isolates by broth microdilution method; assay type: functional
Streptococcus pneumoniae [26] = test: Antimicrobial activity against Streptococcus pneumoniae clinical isolates assessed as resistant isolates by broth microdilution method; assay type: functional
Streptococcus pneumoniae [27] = test: Antimicrobial activity against penicillin-susceptible Streptococcus pneumoniae clinical isolates assessed as resistant isolates by broth microdilution method; assay type: functional
Streptococcus pneumoniae [28] = test: Antimicrobial activity against penicillin-intermediate Streptococcus pneumoniae clinical isolates assessed as resistant isolates by broth microdilution method; assay type: functional
Streptococcus pneumoniae [29] = test: Antimicrobial activity against penicillin-resistant Streptococcus pneumoniae clinical isolates assessed as resistant isolates by broth microdilution method; assay type: functional
[30] = tested on: Staphylococcus haemolyticus; test: Antimicrobial activity against Staphylococcus haemolyticus clinical isolates by broth microdilution method; assay type: functional
[31] = tested on: Staphylococcus epidermidis; test: Antimicrobial activity against oxacillin-susceptible Staphylococcus epidermidis clinical isolates by broth microdilution method; assay type: functional
[32] = tested on: Staphylococcus epidermidis; test: Antimicrobial activity against Staphylococcus epidermidis clinical isolates by broth microdilution method; assay type: functional
Staphylococcus aureus [33] = test: Antimicrobial activity against Staphylococcus aureus clinical isolates by broth microdilution method; assay type: functional
Enterococcus faecium [34] = test: Antimicrobial activity against Enterococcus faecium expressing VanB gene clinical isolates assessed as percent susceptible isolates by broth microdilution method; assay type: functional
Enterococcus faecium [35] = test: Antimicrobial activity against Enterococcus faecium expressing VanA gene clinical isolates assessed as percent susceptible isolates by broth microdilution method; assay type: functional
Enterococcus faecium [36] = test: Antimicrobial activity against vancomycin-nonsusceptible Enterococcus faecium clinical isolates assessed as percent susceptible isolates by broth microdilution method; assay type: functional
Enterococcus faecium [37] = test: Antimicrobial activity against vancomycin-susceptible Enterococcus faecium clinical isolates assessed as percent susceptible isolates by broth microdilution method; assay type: functional
Enterococcus faecalis [38] = test: Antimicrobial activity against Enterococcus faecalis expressing VanA gene clinical isolates assessed as percent susceptible isolates by broth microdilution method; assay type: functional
Enterococcus faecalis [39] = test: Antimicrobial activity against vancomycin-nonsusceptible Enterococcus faecalis clinical isolates assessed as percent susceptible isolates by broth microdilution method; assay type: functional
Enterococcus faecalis [40] = test: Antimicrobial activity against vancomycin-susceptible Enterococcus faecalis clinical isolates assessed as percent susceptible isolates by broth microdilution method; assay type: functional
Enterococcus faecium [41] = test: Antimicrobial activity against Enterococcus faecium expressing VanB gene clinical isolates assessed as resistant isolates by broth microdilution method; assay type: functional
Enterococcus faecium [42] = test: Antimicrobial activity against Enterococcus faecium expressing VanA gene clinical isolates assessed as resistant isolates by broth microdilution method; assay type: functional
Enterococcus faecium [43] = test: Antimicrobial activity against vancomycin-nonsusceptible Enterococcus faecium clinical isolates assessed as resistant isolates by broth microdilution method; assay type: functional
Enterococcus faecalis [44] = test: Antimicrobial activity against Enterococcus faecalis expressing VanB gene clinical isolates assessed as resistant isolates by broth microdilution method; assay type: functional
Enterococcus faecalis [45] = test: Antimicrobial activity against Enterococcus faecalis expressing VanA gene clinical isolates assessed as resistant isolates by broth microdilution method; assay type: functional
Enterococcus faecalis [46] = test: Antimicrobial activity against vancomycin-susceptible Enterococcus faecalis clinical isolates assessed as resistant isolates by broth microdilution method; assay type: functional
Enterococcus faecium [47] = test: Antimicrobial activity against Enterococcus faecium expressing VanB gene clinical isolates by broth microdilution method; assay type: functional
Enterococcus faecium [48] = test: Antimicrobial activity against vancomycin-nonsusceptible Enterococcus faecium clinical isolates by broth microdilution method; assay type: functional
Enterococcus faecium [49] = test: Antimicrobial activity against vancomycin-susceptible Enterococcus faecium clinical isolates by broth microdilution method; assay type: functional
Enterococcus faecium [50] = test: Antimicrobial activity against Enterococcus faecium clinical isolates by broth microdilution method; assay type: functional
Enterococcus faecalis [51] = test: Antimicrobial activity against Enterococcus faecalis expressing VanB gene clinical isolates by broth microdilution method; assay type: functional
Enterococcus faecalis [52] = test: Antimicrobial activity against Enterococcus faecalis expressing VanA gene clinical isolates by broth microdilution method; assay type: functional
Enterococcus faecalis [53] = test: Antimicrobial activity against vancomycin-nonsusceptible Enterococcus faecalis clinical isolates by broth microdilution method; assay type: functional
Enterococcus faecalis [54] = test: Antimicrobial activity against vancomycin-susceptible Enterococcus faecalis clinical isolates by broth microdilution method; assay type: functional
Staphylococcus aureus [55] = test: Antimicrobial activity against oxacillin-resistant Staphylococcus aureus clinical isolates by broth microdilution method; assay type: functional

CCC[C@@H]1C[C@@H](C(=O)N[C@@H]([C@H]2O[C@H](SC)[C@H](O)[C@@H](O)[C@H]2O)[C@H](C)Cl)N(C)C1 [CLINDAMYCIN]
Activity (Streptococcus [1]): 82.4%
Activity (Streptococcus [2]): 100%
Activity (Streptococcus [3]): 96.4%
Activity [4]: 82.4%
Activity [5]: 82.4%
Activity [6]: 96.4%
Activity [7]: 60.9%
Activity [8]: 56.3%
Activity [9]: 65%
Activity (Staphylococcus aureus [10]): 61.9%
Activity (Staphylococcus aureus [11]): 91.8%
Activity (Staphylococcus aureus [12]): 75.7%
Activity (Streptococcus [13]): 3.6%
Activity (Streptococcus [14]): 0%
Activity (Streptococcus [15]): 17.6%
Activity [16]: 17.6%
Activity [17]: 0%
Activity [18]: 17.6%
Activity [19]: 3.6%
Activity (Streptococcus pyogenes): 3.9%
Activity [20]: 2.8%
Resistant isolates [21]: 27.9%
Percent of isolates resistant [22]: 11%
Percent resistant isolates (Staphylococcus aureus [23]): 37.9%
Percent of isolates resistant (Staphylococcus aureus [24]): 8%
Percent resistant isolates (Staphylococcus aureus [25]): 24.1%
Resistant isolates (Streptococcus pneumoniae [26]): 12.9%
Percent of isolates resistant (Streptococcus pneumoniae [27]): 2.6%
Percent of isolates resistant (Streptococcus pneumoniae [28]): 15.3%
Percent of isolates resistant (Streptococcus pneumoniae [29]): 54.1%
MIC90 [30]: > 2 µg/mL
MIC90 [31]: > 2 µg/mL
MIC90 [32]: > 4 µg/mL
MIC90 (Staphylococcus aureus [33]): > 4 µg/mL

C[C@H]1COc2c(N3CCN(C)CC3)c(F)cc3c(=O)c(C(=O)O)cn1c23.C[C@H]1COc2c(N3CCN(C)CC3)c(F)cc3c(=O)c(C(=O)O)cn1c23.O [LEVOFLOXACIN]
Activity (Enterococcus faecium [34]): 0%
Activity (Enterococcus faecium [35]): 0.2%
Activity (Enterococcus faecium [36]): 0.2%
Activity (Enterococcus faecium [37]): 28.3%
Activity (Enterococcus faecalis [38]): 0%
Activity (Enterococcus faecalis [39]): 0%
Activity (Enterococcus faecalis [40]): 64.4%
Activity [16]: 0%
Activity [17]: 0%
Activity [18]: 0%
Activity [19]: 0%
Activity (Streptococcus pyogenes): 0.1%
Activity (Enterococcus faecium [41]): 100%
Activity (Enterococcus faecium [42]): 99.8%
Activity (Enterococcus faecium [43]): 99.8%
Activity (Enterococcus faecalis [44]): 100%
Activity (Enterococcus faecalis [45]): 100%
Activity (Enterococcus faecalis [46]): 35.2%
Resistant isolates (Streptococcus pneumoniae [26]): 0.9%
Percent of isolates resistant (Streptococcus pneumoniae [27]): 0.5%
Percent of isolates resistant (Streptococcus pneumoniae [28]): 2.3%
Percent of isolates resistant (Streptococcus pneumoniae [29]): 0.7%
MIC90 (Enterococcus faecium [47]): > 16 µg/mL
MIC90 (Enterococcus faecium [48]): > 16 µg/mL
MIC90 (Enterococcus faecium [49]): > 16 µg/mL
MIC90 (Enterococcus faecium [50]): > 16 µg/mL
MIC90 (Enterococcus faecalis [51]): > 16 µg/mL
MIC90 (Enterococcus faecalis [52]): > 16 µg/mL
MIC90 (Enterococcus faecalis [53]): > 16 µg/mL
MIC90 (Enterococcus faecalis [54]): > 16 µg/mL

CN[C@H](CC(C)C)C(=O)N[C@H]1C(=O)N[C@@H](CC(N)=O)C(=O)N[C@H]2C(=O)N[C@H]3C(=O)N[C@H](C(=O)N[C@H](C(=O)O)c4cc(O)cc(O)c4-c4cc3ccc4O)[C@H](O)c3ccc(c(Cl)c3)Oc3cc2cc(c3O[C@@H]2O[C@H](CO)[C@@H](O)[C@H](O)[C@H]2O[C@H]2C[C@](C)(N)[C@H](O)[C@H](C)O2)Oc2ccc(cc2Cl)[C@H]1O [VANCOMYCIN]
Activity (Streptococcus [1]): 100%
Activity (Streptococcus [2]): 100%
Activity (Streptococcus [3]): 100%
Activity [4]: 100%
Activity [5]: 100%
Activity [6]: 100%
Activity (Enterococcus faecium [34]): 0%
Activity (Enterococcus faecium [35]): 0%
Activity (Enterococcus faecium [36]): 0%
Activity (Enterococcus faecalis [38]): 0%
Activity (Enterococcus faecalis [39]): 0%
Activity (Enterococcus faecalis [40]): 100%
Activity [7]: 100%
Activity [8]: 100%
Activity [9]: 100%
Activity (Staphylococcus aureus [10]): 100%
Activity (Staphylococcus aureus [11]): 100%
Activity (Staphylococcus aureus [12]): 100%
Activity (Enterococcus faecalis [44]): 100%
Activity (Enterococcus faecalis [45]): 100%
Activity (Enterococcus faecalis [46]): 0%
Activity [20]: 0%
Resistant isolates [21]: 0%
Percent of isolates resistant [22]: 0%
Percent resistant isolates (Staphylococcus aureus [23]): 0%
Percent of isolates resistant (Staphylococcus aureus [24]): 0%
Percent resistant isolates (Staphylococcus aureus [25]): 0%
MIC90 (Enterococcus faecium [47]): 256 µg/mL (≈ 177 µM)
MIC90 (Enterococcus faecium [48]): > 256 µg/mL
MIC90 (Enterococcus faecium [49]): 1 µg/mL (≈ 0.69 µM)
MIC90 (Enterococcus faecium [50]): > 256 µg/mL
MIC90 (Enterococcus faecalis [51]): > 256 µg/mL
MIC90 (Enterococcus faecalis [52]): > 256 µg/mL
MIC90 (Enterococcus faecalis [53]): > 256 µg/mL
MIC90 (Enterococcus faecalis [54]): 2 µg/mL (≈ 1.38 µM)
MIC90 [30]: 2 µg/mL (≈ 1.38 µM)
MIC90 [31]: 2 µg/mL (≈ 1.38 µM)
MIC90 [32]: 2 µg/mL (≈ 1.38 µM)
MIC90 (Staphylococcus aureus [55]): 1 µg/mL (≈ 0.69 µM)
MIC90 (Staphylococcus aureus [33]): 1 µg/mL (≈ 0.69 µM)
